Reference: US7223759B2, “Antibacterial 3,5-diaminopiperidine-substituted aromatic and heteroaromatic compounds” (Anadys Pharmaceuticals, Inc., priority 2003, dated 2007)

test system: Escherichia coli (ATCC25922) or Staphylococcus aureus (ATCC25923); test: Antibacterial MIC, microdilution method in Mueller-Hinton medium; assay type: cell-based; conditions: Escherichia coli, 18 h, MIC in E. coli or S. aureus; two-fold serial dilutions 64 to 0.5 μg/ml in duplicate; 18 hours of incubation at 35° C.; read-out: Potency (MIC)
Outline: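 Two-fold serial dilutions from 64 to 0.5 μg/ml, in duplicate, by broth microdilution in Mueller-Hinton medium (NCCLS M7-A5). MIC taken as the lowest concentration preventing visible growth after 18 h at 35° C.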

MIC [µg/mL] | Compound
> 64 | COc1ccc(NC(C)=O)cc1Nc1nc(N2C[C@H](N)C[C@H](N)C2)nc(N2C[C@H](N)C[C@H](N)C2)n1 [N-(5-acetylamino-2-methoxy-phenyl)-4,6-Bis-((3R,5S)-3,5-diamino-piperidin-1-yl)-[1,3,5]triazine-2-amine]
< 64 | Cl.N[C@@H]1C[C@H](N)CN(c2nc(Nc3cccc(C(F)(F)F)c3)nc(N3C[C@H](N)C[C@H](N)C3)n2)C1 [N-(3-trifluoromethyl-phenyl)-4,6-Bis-((3R,5S)-3,5-diamino-piperidin-1-yl)-[1,3,5]triazine-2-amine]
< 64 | N[C@@H]1C[C@H](N)CN(c2nc(Nc3ccc(SC(F)(F)F)cc3)nc(N3C[C@H](N)C[C@H](N)C3)n2)C1 [N-(4-trifluoromethylsulfanyl-phenyl)-4,6-Bis-((3R,5S)-3,5-diamino-piperidin-1-yl)-[1,3,5]triazine-2-amine]
< 64 | Cl.N[C@@H]1C[C@H](N)CN(c2nc(Nc3ccc(Cl)c(Cl)c3)nc(N3C[C@H](N)C[C@H](N)C3)n2)C1 [N-(3,4-dichloro-phenyl)-4,6-Bis-((3R,5S)-3,5-diamino-piperidin-1-yl)-[1,3,5]triazine-2-amine]
< 64 | CC(C)CC(=O)Nc1ccc(Nc2nc(N3CCCCC3)nc(N3CCCCC3)n2)cc1O.Cl [N-[3-hydroxy-4-(3-methyl-butyrylamino)-phenylk]-4,6-Bis-((3R,5S)-3,5-diamino-piperidin-1-yl)-[1,3,5]triazine-2-amine]
> 64 | Cc1ccc(S(=O)(=O)N(C)C)cc1Nc1nc(N2C[C@H](N)C[C@H](N)C2)nc(N2C[C@H](N)C[C@H](N)C2)n1 [N-(5-dimethylsulfamoyl-2-methyl-phenyl)-4,6-Bis-((3R,5S)-3,5-diamino-piperidin-1-yl)-[1,3,5]triazine-2-amine]
< 64 | N[C@@H]1C[C@H](N)CN(c2nc(Nc3ccc(NC(=O)c4cnc5ccccc5n4)c(O)c3)nc(N3C[C@H](N)C[C@H](N)C3)n2)C1 [N-{3-hydroxy-4-[(quinoxaline-2-carbonyl)-amino]-phenyl}-4,6-Bis-((3R,5S)-3,5-diamino-piperidin-1-yl)-[1,3,5]triazine-2-amine]
< 64 | N[C@@H]1C[C@H](N)CN(c2nc(Nc3ccc(NC(=O)Cc4ccccc4)c(O)c3)nc(N3C[C@H](N)C[C@H](N)C3)n2)C1 [N-(3-hydroxy-4-phenylacetylamino-phenyl)-4,6-Bis-((3R,5S)-3,5-diamino-piperidin-1-yl)-[1,3,5]triazine-2-amine]
< 16 | Cl.O=C(Nc1ccc(Cl)cc1Cl)c1ccc(Nc2nc(N3CCCCC3)nc(N3CCCCC3)n2)cc1O [N-[4-(2,4-dichloro-phenylcarbamoyl)-3-hydroxy-phhenyl]-4,6-Bis-((3R,5S)-3,5-diamino-piperidin-1-yl)-[1,3,5]triazine-2-amine]

Second part, the compound before the results:

Compound | MIC [µg/mL]
Cc1cc(Nc2nc(N3C[C@H](N)C[C@H](N)C3)nc(N3C[C@H](N)C[C@H](N)C3)n2)ccc1NC(=O)c1ccc(O)cc1O [N-[4-(2,4-dihydroxy-benzoylamino)-3-methyl-phenyl]-4,6-Bis-((3R,5S)-3,5-diamino-piperidin-1-yl)-[1,3,5]triazine-2-amine] | < 16
Cl.O=C(CCCCC1SCC2NC(=O)NC21)Nc1ccc(Nc2nc(N3CCCCC3)nc(N3CCCCC3)n2)cc1O [5-((S)-2-Oxo-hexahydro-thieno[3,4-d]imidazol-2-yl)-penanoicacid {4-[4-((3S,5S)-3-amino-5-azido-piperidin-1-yl)-6-((3S,5R)-3,5-diamino-piperidin-1-yl)-[1,3,5]triazin-2-ylamino]-2-hydroxy-phenyl}-amide] | > 64
N[C@@H]1C[C@H](N)CN(c2nc(N3CCC(n4c(=O)[nH]c5ccccc54)CC3)nc(N3C[C@H](N)C[C@H](N)C3)n2)C1 [8-(4,6-Bis-((3R,5S)-3,5-0diamino-piperidin-1-yl)-[1,3,5]triazin-2-yl)-1-phenyl-1,3,8-triaza-spiro[4.5]decan-4-one] | > 64

same assay, conditions: Escherichia coli, 18 h, read-out: Potency (MIC)

Compound | MIC [µg/mL]
N[C@@H]1C[C@H](N)CN(c2nc(Nc3ccc(NC(=O)c4c(O)ccc5ccccc45)c(Cl)c3)nc(N3C[C@H](N)C[C@H](N)C3)n2)C1 [N-{3-chloro-4-[(2-hydroxy-naphthalene-1-carbonyl)-amino]-phenyl}-4,6-Bis-((3R,5S)-3,5-diamino-piperidin-1-yl)-[1,3,5]triazine-2-amine] | < 16
N[C@@H]1C[C@H](N)CN(c2nc(Nc3ccc(C(=O)CC(=O)Nc4ccc(F)cc4)cc3)nc(N3C[C@H](N)C[C@H](N)C3)n2)C1 [N-{4-[2-(4-fluoro-phenylcarbamoyl)-acetyl]-phenyl}-4,6-Bis-((3R,5S)-3,5-diamino-piperidin-1-yl)-[1,3,5]triazine-2-amine] | < 16
COc1ccc(OC)c(NC(=O)CC(=O)c2ccc(Nc3nc(N4C[C@H](N)C[C@H](N)C4)nc(N4C[C@H](N)C[C@H](N)C4)n3)cc2)c1 [N-{4-[2-(2,5-dimethoxy-phenylcarbamoyl)-acetyl]-phenyl}-4,6-Bis-((3R,5S)-3,5-diamino-piperidin-1-yl)-[1,3,5]triazine-2-amine] | < 64
Cc1ccc(C(=O)Nc2ccc(Nc3nc(N4C[C@H](N)C[C@H](N)C4)nc(N4C[C@H](N)C[C@H](N)C4)n3)cc2O)cc1 [N-[3-hydroxy-4-(4-methyl-benzoylamino)-phenyl]-4,6-Bis-((3R,5S)-3,5-diamino-piperidin-1-yl)-[1,3,5]triazine-2-amine] | < 16
N[C@@H]1C[C@H](N)CN(c2nc(Nc3ccc(NC(=O)c4ccc(O)cc4O)c(O)c3)nc(N3C[C@H](N)C[C@H](N)C3)n2)C1 [N-[4-(2,4-dihydroxy-benzoylamino)-3-hydroxy-phenyl]-4,6-Bis-((3R,5S)-3,5-diamino-piperidin-1-yl)-[1,3,5]triazine-2-amine] | < 16
NC[C@@H]1C[C@H](N)CN1c1nc(Nc2ccc(NC(=O)c3ccc(Cl)cc3)c(O)c2)nc(N2C[C@H](N)C[C@H](N)C2)n1 [N-{4-[4-((2S,4S)-4-Amino-2-aminomethyl-pyrrolidin-1-yl)-6-((3R,5S)-3,5-diamino-piperidin-1-yl)-[1,3,5]triazin-2-ylamino]-2-hydroxy-phenyl}-4-chloro-benzamide] | < 16
N[C@@H]1C[C@H](N)CN(c2nc(Nc3ccc(C(=O)CC(=O)Nc4ccc(F)c(F)c4)cc3)nc(N3C[C@H](N)C[C@H](N)C3)n2)C1 [N-{4-[2-(3,4-difluoro-phenylcarbamoyl)-acetyl]-phenyl}-4,6-Bis-((3R,5S)-3,5-diamino-piperidin-1-yl)-[1,3,5]triazine-2-amine] | < 16
N[C@@H]1C[C@H](N)CN(c2nc(N3C[C@H](N)C[C@H](N)C3)c(Cl)c(Nc3ccc(NC(=O)c4ccc5ccccc5c4O)cc3)c2Cl)C1 [1-Hydroxy-naphthalene-2-carboxylic acid [4-(3,5-dichloro-2,6-Bis-((3R,5S)-3,5-diamino-piperidin-1-yl)-pyridin-4-ylamino)-phenyl]-amide] | < 16
CCN(CC)CCNC(=O)c1ccc(Nc2nc(N3C[C@H](N)C[C@H](N)C3)nc(N3C[C@H](N)C[C@H](N)C3)n2)cc1 [N-[4-(2-diethylamino-ethylcarbamoyl)-phenyl]-4,6-Bis-((3R,5S)-3,5-diamino-piperidin-1-yl)-[1,3,5]triazine-2-amine] | < 64

same assay, conditions: MIC in E. coli or S. aureus; two-fold serial dilutions 64 to 0.5 μg/ml in duplicate; 18 hours of incubation at 35° C.

Compound | Potency (MIC)
N-(4-phenylazo-phenyl)-4,6-Bis-((3R,5S)-3,5-0diamino-piperidin-1-yl)-[1,3,5]triazine-2-amine | ++ (++ means MIC<16 μg/ml in E. coli or S. aureus)
